Results taken from US20120231482A1, “METHOD, KIT OR DIAGNOSTIC FOR THE DETECTION OF REAGENTS WHICH INDUCE ALTERED CONTRACTILITY” (THE JOHNS HOPKINS UNIVERSITY, priority 2009, published 2012).

Experiments:
[1] = biological target: T1, myosin light chain 1 (Rattus norvegicus, UniProt P16409); experiment: Modified biotin switch assay, sites of HNO modification; type: biochemical; settings: for number of independent observations of peptide: Cys 81, tryptic peptide ITYGQCGDVLR, 25 μM NCA or 500 μM AS; for Position of modified Cys: myosin light chain 1, Table 2
T1 construct: Rat myofibrillar preparations, as described in [7], were obtained from frozen ventricles (Pel Freez Biologicals); tissue Pel Freez Biologicals; host or cells: myofibrils from frozen rat ventricles
T1 sequence (P16409 whole entry): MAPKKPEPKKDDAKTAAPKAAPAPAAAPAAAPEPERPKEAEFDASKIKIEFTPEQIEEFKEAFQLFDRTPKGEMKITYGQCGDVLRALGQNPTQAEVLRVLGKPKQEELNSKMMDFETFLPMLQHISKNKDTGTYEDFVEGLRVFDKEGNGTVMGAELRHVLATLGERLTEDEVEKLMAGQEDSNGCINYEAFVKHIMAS
Description: (§1) Rat myofibrillar preparations, as described in [7], were obtained from frozen ventricles (Pel Freez Biologicals) minced in 20 volumes/tissue weight of 4° C. relax buffer (SRB (75 mM KCL, 10 mM imidazole pH 7.2, 2 mM MgCl2) plus 4 mM phosphocreatine, 1 mM ATP, 50 mM BDM, 1 mM benzamidine-HCL, 0.1 mM PMSF, 1 μg/ml leupeptin, 1 μg/ml pepstatin, 1% (v/v) Trixon X-100) and adjusted to 10 mM EDTA. Minced preparations were centrifuged for 8 min at 3000xg and the supernant was decanted. Resulting pellets were resuspended in 10 volumes of SRB plus 1% Triton X-100 and subjected to 6 strokes in a Duall tissue homogenizer and centrifuged as above. Pellets were gently resuspended and centrifuged as above twice more in SRB including 1% (v/v) Triton X-100, twice in SRB lacking Triton X-100 and once in K-60 buffer (60 mM KCL, 20 mM MOPS, 2 mM MgCl2 pH 7) before being resuspended in 5 volumes of K-60.
(§2) Detection of HNO modifications by Modified Biotin Switch. HNO modified thiols were detected using a modification to the standard biotin switch protocol. In brief, 100 μg of rat myofibrils/treatment were diluted to 0.5 μg/μl in HEN (250 mM HEPES pH 7.7, 1 mM EDTA and 0.1 mM neocuproine) including 0.1% (w/v) SDS and exposed to a treatment for 10 min at 37° C. which was subsequently removed by acetone precipitation. Remaining free thiols were blocked by addition of 300 μl of HEN including 2.5% (w/v) SDS and 20 mM N-ethylmaleimide (NEM), incubated for 20 min at 50° C. Excess NEM was removed by acetone precipitation. HNO and/or NO modified thiols were reduced using 5 mM DTT or 1 mM ascorbate in 150 μl of HEN including 1% (w/v) SDS and biotinylated with 0.8 mM Biotin-HPDP (Pierce) for one hour at room temperature. Excess biotin-HPDP was removed by acetone precipitation (2 volumes) and resultant pellets were carefully washed with an additional volume of acetone. Biotinylated proteins were resuspended in 1 ml of HEN including 0.1% (w/v) SDS and captured by incubation with 15 μl of washed, packed Ultralink Immobilized Streptavidin (Pierce) for one hour at room temperature. Beads were washed four times in 50 bead volumes of HEN (twice including 0.1% (w/v) SDS, twice including 600 mM NaCl) and twice with EB (20 mM HEPES pH 7.7, 100 mM NaCl, 1 mM EDTA). Captured proteins were eluted with 40 μl of EB containing 100 mM DTT, mixed with 15 μl of 4×LDS sample buffer, boiled, separated by SDS PAGE and silver stained. For MS studies, biotinylated proteins were digested overnight with trypsin (Promega) prior to capture and washed ten additional times with 5 mM ammonium bicarbonate/20% acetonitrile before being eluted in 100 μl of wash buffer including 100 mM DTT as described. Captured peptides were identified using a LTQ linear ion trap tandem mass spectrometer (ThermoFinnigan, Waltham Mass. USA) with data searched against the rat IPI primary sequence database using the sorcerer searching platform (sagen).
(§3) To investigate the modifications that underlie the difference seen in the functional effect of these two compounds we performed an analysis on the myofilament proteins, using a modified biotin-switch method, followed by mass spectrometry for identification (FIG. 3). Following treatment with HNO or control compounds, unmodified cysteines are blocked with NEM before treatment with a reducing agent and labeling the exposed cysteines with a biotin group (FIG. 3A). In this case, 5 mM DTT was used as the reducing agent because it was shown in the physiological studies to reverse the effect of the treatment. […] Tryptic or chymotryptic peptides containing the modified cysteine residues were captured and identified by LC/MS/MS. […] To parse the role of candidate sites of modification between these two effects a comparative proteomics experiment was designed where modifications specific to NCA treatment would be considered candidates for the Ca^2+ effect while sites identified in common between AS and NCA could be candidates for the force effect (FIG. 3C). […]

[2] = biological target: T2, α actin (Rattus norvegicus, UniProt P68035); experiment: as above; type: biochemical; settings: 25 μM NCA or 500 μM AS
T2 construct: Rat myofibrillar preparations, as described in [7], were obtained from frozen ventricles (Pel Freez Biologicals); tissue Pel Freez Biologicals; host or cells: myofibrils from frozen rat ventricles
Description: as §1, §2, §3

[3] = biological target: T3, myson binding protein C (Rattus norvegicus, UniProt P56741); experiment: as above; type: biochemical; settings: for number of independent observations of peptide: Cys 475, 25 μM NCA or 500 μM AS; for Position of modified Cys: myosin binding protein C, Table 2
T3 construct: Rat myofibrillar preparations, as described in [7], were obtained from frozen ventricles (Pel Freez Biologicals); tissue Pel Freez Biologicals; host or cells: myofibrils from frozen rat ventricles
T3 sequence (P56741 whole entry): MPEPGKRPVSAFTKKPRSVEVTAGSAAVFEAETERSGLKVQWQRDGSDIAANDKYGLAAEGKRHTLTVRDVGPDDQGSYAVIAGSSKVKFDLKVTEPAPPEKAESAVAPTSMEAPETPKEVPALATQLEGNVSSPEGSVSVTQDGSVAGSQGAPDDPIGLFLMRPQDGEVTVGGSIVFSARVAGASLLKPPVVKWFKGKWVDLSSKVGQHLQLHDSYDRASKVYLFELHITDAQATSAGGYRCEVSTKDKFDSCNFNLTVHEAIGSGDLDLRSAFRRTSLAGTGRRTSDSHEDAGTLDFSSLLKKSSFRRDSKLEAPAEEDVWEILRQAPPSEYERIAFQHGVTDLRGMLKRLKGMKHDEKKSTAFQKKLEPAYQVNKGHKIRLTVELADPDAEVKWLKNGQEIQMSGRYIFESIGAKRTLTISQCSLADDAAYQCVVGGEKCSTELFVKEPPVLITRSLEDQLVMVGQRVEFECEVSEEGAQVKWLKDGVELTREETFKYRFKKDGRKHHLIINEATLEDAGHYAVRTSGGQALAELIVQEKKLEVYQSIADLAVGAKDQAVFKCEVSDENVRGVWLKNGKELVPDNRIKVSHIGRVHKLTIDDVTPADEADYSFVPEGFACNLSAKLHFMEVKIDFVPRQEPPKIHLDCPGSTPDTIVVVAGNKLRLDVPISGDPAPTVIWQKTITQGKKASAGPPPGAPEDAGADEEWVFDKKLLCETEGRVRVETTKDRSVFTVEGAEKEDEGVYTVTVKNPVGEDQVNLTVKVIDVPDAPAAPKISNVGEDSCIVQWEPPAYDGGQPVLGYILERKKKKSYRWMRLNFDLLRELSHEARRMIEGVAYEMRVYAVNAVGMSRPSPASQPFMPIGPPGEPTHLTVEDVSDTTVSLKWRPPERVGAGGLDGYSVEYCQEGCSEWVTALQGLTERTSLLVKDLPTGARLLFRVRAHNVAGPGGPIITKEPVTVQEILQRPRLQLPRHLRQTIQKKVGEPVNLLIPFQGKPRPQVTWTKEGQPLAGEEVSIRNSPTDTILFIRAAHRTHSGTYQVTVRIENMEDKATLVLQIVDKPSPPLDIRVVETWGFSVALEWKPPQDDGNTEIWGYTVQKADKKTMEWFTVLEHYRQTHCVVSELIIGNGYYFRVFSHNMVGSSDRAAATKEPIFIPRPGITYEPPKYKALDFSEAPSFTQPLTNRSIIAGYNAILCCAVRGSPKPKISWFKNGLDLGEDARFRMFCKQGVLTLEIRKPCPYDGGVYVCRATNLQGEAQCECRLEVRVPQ
Description: as §1, §2, §3

[4] = biological target: T4, myosin heavy chain α (Rattus norvegicus, UniProt P02563); experiment: as above; type: biochemical; settings: for number of independent observations of peptide: Cys 37, 25 μM NCA or 500 μM AS; for Position of modified Cys: myosin heavy chain (α), Table 2
T4 construct: Rat myofibrillar preparations, as described in [7], were obtained from frozen ventricles (Pel Freez Biologicals); tissue Pel Freez Biologicals; host or cells: myofibrils from frozen rat ventricles
T4 sequence (P02563 whole entry): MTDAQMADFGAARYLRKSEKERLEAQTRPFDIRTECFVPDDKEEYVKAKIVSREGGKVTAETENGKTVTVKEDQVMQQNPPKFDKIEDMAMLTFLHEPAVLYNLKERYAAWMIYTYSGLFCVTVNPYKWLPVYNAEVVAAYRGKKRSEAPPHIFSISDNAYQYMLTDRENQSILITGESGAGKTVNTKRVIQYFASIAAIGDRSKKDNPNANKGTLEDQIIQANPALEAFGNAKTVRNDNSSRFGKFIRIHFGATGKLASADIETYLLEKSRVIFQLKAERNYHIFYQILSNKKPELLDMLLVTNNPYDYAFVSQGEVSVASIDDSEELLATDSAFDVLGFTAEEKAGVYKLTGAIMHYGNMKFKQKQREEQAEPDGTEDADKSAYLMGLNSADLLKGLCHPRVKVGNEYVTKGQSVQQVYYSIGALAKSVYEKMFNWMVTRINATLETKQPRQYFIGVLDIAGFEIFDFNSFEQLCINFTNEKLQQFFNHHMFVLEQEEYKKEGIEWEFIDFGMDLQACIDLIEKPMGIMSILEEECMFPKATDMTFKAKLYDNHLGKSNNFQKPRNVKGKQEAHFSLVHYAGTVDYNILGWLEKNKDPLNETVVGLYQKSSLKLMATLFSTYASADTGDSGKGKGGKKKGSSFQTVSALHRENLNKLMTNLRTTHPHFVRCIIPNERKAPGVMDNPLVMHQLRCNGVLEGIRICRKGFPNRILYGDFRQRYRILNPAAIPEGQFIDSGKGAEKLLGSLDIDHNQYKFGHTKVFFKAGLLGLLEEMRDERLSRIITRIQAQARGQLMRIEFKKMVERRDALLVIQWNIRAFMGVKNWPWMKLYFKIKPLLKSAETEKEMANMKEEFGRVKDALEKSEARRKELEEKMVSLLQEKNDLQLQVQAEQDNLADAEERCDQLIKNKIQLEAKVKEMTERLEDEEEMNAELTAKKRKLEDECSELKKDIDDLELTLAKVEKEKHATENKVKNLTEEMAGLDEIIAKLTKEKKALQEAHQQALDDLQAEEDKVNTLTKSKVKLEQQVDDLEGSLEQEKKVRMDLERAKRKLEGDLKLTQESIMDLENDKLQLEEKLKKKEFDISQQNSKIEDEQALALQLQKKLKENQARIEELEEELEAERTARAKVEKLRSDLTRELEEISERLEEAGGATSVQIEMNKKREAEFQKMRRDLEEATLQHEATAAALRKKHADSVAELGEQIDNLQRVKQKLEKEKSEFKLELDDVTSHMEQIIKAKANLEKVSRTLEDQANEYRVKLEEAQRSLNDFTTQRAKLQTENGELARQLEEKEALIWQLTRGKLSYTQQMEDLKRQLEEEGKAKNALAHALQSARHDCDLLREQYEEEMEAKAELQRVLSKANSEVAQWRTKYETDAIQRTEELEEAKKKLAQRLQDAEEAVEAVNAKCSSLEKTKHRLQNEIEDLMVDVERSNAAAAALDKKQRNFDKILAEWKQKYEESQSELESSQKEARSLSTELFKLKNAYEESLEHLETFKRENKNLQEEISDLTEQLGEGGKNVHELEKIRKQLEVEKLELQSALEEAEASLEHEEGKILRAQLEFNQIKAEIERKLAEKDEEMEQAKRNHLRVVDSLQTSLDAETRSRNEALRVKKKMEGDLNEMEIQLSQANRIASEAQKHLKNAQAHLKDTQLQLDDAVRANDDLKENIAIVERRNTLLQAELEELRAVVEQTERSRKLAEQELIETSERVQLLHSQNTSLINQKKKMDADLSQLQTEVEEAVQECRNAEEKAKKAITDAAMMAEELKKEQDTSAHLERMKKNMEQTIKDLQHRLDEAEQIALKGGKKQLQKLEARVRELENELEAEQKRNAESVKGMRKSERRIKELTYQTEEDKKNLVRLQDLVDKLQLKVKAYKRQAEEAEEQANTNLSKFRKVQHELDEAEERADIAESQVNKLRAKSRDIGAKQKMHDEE
Description: as §1, §2, §3

[5] = biological target: T5, troponin C (cardiac) (Rattus norvegicus, UniProt Q4PP99); experiment: as above; type: biochemical; settings: for number of independent observations of peptide: Cys 35, tryptic peptide AAFDIFVLGAEDGCISTK, 25 μM NCA or 500 μM AS; for Position of modified Cys: troponin C, Table 2
T5 construct: Rat myofibrillar preparations, as described in [7], were obtained from frozen ventricles (Pel Freez Biologicals); tissue Pel Freez Biologicals; host or cells: myofibrils from frozen rat ventricles
Description: as §1, §2, §3

[6] = system: skeletal muscle; experiment: Steady-state force-[Ca2+]i relations of skeletal muscle; type: cell-based, rat
Description: FIG. 6. MLC1 Cys81 necessary for increase in Fmax induced by treatment with HNO donors. (a) Sequence alignment comparing isoforms of rat cardiac (SEQ ID NO:16) and skeletal MLC1 (SEQ ID NO:17) in the region surrounding cardiac Cys81. (b) Steady-state force-[Ca^2+]i relations in control (o) versus NCA-treated (•) from cardiac or skeletal trabeculae indicating loss of increase in maximum force with loss of Cys81 in skeletal isoform with NCA (n=5, each group). (c) 2D Gel shift assay (non-reduced, NR and reduced, DTT) using 10 μg of skeletal or cardiac myofibrils indicating loss of higher molecular weight forms of MLC1 in skeletal HNO treated preparations while maintaining higher molecular weight form of TM (n=3).
To determine if MLC1 Cys81 is involved in the increased maximum force production, the effect of HNO donors was investigated in skeletal muscle preparations. Skeletal muscle isoforms of myofilament proteins contain all of the potential target Cys except for MLC1, which lacks the candidate site Cys81 providing a natural mutant sequence (FIG. 6A). […] The same insensitivity of Fmax to AS was also observed in skinned skeletal muscles (data not shown).

[7] = Cys 12, tryptic peptide DDEETTALVCDNGSLVK
[8] = Cys 219, tryptic peptide LCYVALDFENEMATAASSSLEK

SMILES	number of independent observations of peptide [1]	Position of modified Cys [1]	number of independent observations of peptide ([2]; Cys 12, chymotryptic peptide VCDNGSLVKAGF)	number of independent observations of peptide [2, 7]	number of independent observations of peptide [2, 8]	number of independent observations of peptide ([3]; chymotryptic peptide ECEVSEEGAQVKW)	Position of modified Cys [3]	number of independent observations of peptide ([4]; chymotryptic peptide DIRTECFVPDDKEEY)	number of independent observations of peptide ([4]; tryptic peptide TECFVPDDKEEYVK)	Position of modified Cys [4]	number of independent observations of peptide [5]	Position of modified Cys [5]	Fmax ([6]; skinned skeletal muscles, AS, data not shown)	number of independent observations of peptide ([2]; Cys 257, chymotryptic peptide RCPETLFQPSF)	number of independent observations of peptide ([3]; tryptic peptide VEFECEVSEEGAQVK)	Ca50 ([6]; skeletal muscle, NCA 25 μmol/L) [µM]	Fmax ([6]; skeletal muscle, NCA 25 μmol/L) [mN/mm^2]	Hill ([6]; skeletal muscle, NCA 25 μmol/L)
[Na+].[Na+].[O-][N+]([O-])=NO [AS, Angeli's Salt]	2	81	2	3	1	2	475	3	3	37(α)	2	35	insensitivity	–	–	–	–	–
CC(=O)OC1(N=O)CCCCC1 [NCA, 1-nitrosocyclohexylacetate]	2	81	–	3	1	–	475	–	3	37(α)	2	35	–	1	1	0.8 ± 0.1	33±3.8	4.36±0.81
